Experimental data from patent US6632616B2, “Compounds that selectively bind to expanded polyglutamine repeat domains and methods of use thereof” (Duke University, priority 2000, dated 2003).
No end group written: not given here.

Assays:
thio-Q62 = assay: Thioredoxin-polyglutamine turbidity (aggregation) assay, thio-Q62; format: biochemical; conditions: for Ability to Inhibit Aggregation: 5 μm peptide and 15 μM thio-polyglutamine, 62 glutamines, 10 days; for inhibition of polyglutamine-thioredoxin aggregation (FIG. 6 and 7): peptides at 1 and 10 microMolar
Experimental: Turbidity assays were performed in 200 μl reactions consisting of thioredoxin-polyglutamine in PBS in 96-well, low protein binding plates. Plates were incubated at 4° C. and turbidity measured at 405 nm on a Thermo Max plate reader (Molecular Devices).
Peptides were synthesized at the Howard Hughes Medical Institute peptide sequencing facility at Duke University with an acetylated amino terminus and protection of tryptophan with BOC during synthesis. Identical results were obtained with peptides obtained from Bio-Synthesis Inc. (Lewisville, Tex.). Stock solutions of peptides were prepared fresh daily by dissolving in dimethyl sulfoxide at 2.5 mM and incubated with thioredoxin-polyglutamine protein at 0.25-25 μM.
To monitor thioredoxin-polyglutamine protein aggregation a turbidometric assay was developed, similar to the assays commonly used to study microtubule assembly and β-amyloid aggregation (Jarrett, J. T. et al. (1993) Biochem 32, 4693-4697; Sloboda, R. D. et al. (1976) Biochem 15, 4497-4505). Solutions of thio-Q62 and 81 protein increased turbidity in a polyglutamine length-, time- and concentration-dependent manner (FIG. 1B and C; Time dependence of aggregation of thioredoxin-polyglutamine with 81 glutamines not shown). […] The pelleted and retained material was confirmed as thioredoxin-polyglutamine fusion protein containing 62 or 81 glutamines on western blots probed with anti-thioredoxin or anti-polyglutamine antibody (not shown). In contrast, thioredoxin-polyglutamine protein containing 19 or 35 glutamines (thio-Q19 or 35) was not pelleted by centrifugation and was not trapped by a 0.22 μm filter.

Q81-YFP [1] = assay: Co-localization with Q81-YFP aggregates in co-transfected COS-7 cells; format: cell-based; conditions: co-expression, 48 hours after transfection
Experimental: (§1) The CAG repeat of the Qn-GFP vector (Onodera, O. et al. (1996) FEBS Letters 399, 135-139) were inserted into the XhoI and EcoRI sites of the pEYFP-N1 vector (Clontech, Palo Alto, Calif.) to construct the Qn-YFP vectors. The polyglutamine-binding peptide and control constructs were prepared by ligating synthetic oligonucleotides into the XhoI and BamHI sites of the pECFP-N1 vector (Clontech) to obtain glutamine binding peptide 1-CFP (QBP1-CFP), scrambled QBP1-CFP (SCR-CFP), and a computer-generated random peptide-CFP (RAN)-CFP. The insert of QBP1-CFP was duplicated by PCR to obtain a tandem repeat of QBP1-CFP ((QBP1)2-CFP). The sequence of all constructs was confirmed by DNA sequencing. The first methionine of YFP or CFP was changed to isoleucine by PCR site-directed mutagenesis to eliminate translation of the fluorescent protein without the polyglutamine domain. The sizes of the fluorescent fusion proteins were confirmed by western blotting.
COS-7 cells were grown and maintained in Dulbecco's modified Eagles' medium (DMEM) supplemented with 10% fetal calf serum (FCS). Cells were transfected with Effectene according to manufacturer's instructions (Qiagen GmbH, Hilden, Germany). Cells were examined 48 hours after transfection using a Zeiss fluorescence microscope equipped with YFP/CFP filter sets (Omega Optical Inc., Brattleboro, Vt.). The percentage of cells with aggregates was calculated by dividing the number of cells with aggregates by the total number of fluorescent cells, multiplied by 100. Cell viability was examined 48 hours after transfection using ehtidium homodimer (Molecular Probes, Eugene, Oreg.). Cells were incubated with 5 μM ethidium homodimer for 30 minutes (37° C.) and then examined under a fluorescence microscope equipped with a rhodamine filter set. Cells with nuclear fluorescence were counted as dead. In each experiment at least 200 transfected cells were counted. Cells expressing random peptide-CFP (RAN-CFP) and polyglutamine-YFP (Qn-YFP) were used as a control to calculate the relative difference in aggregate formation and cell death. […]

Q45-YFP = Q45-YFP aggregate formation in co-transfected COS-7 cells; format: cell-based; conditions: compared to cells co-expressing RAN-CFP; COS-7, 48 hours
Experimental: COS-7 cells examined 48 hours after transfection using a Zeiss fluorescence microscope with the CFP/YFP filter set from Omega Optical Inc. The percentage of cells with aggregates was calculated by counting the number of transfected cells containing aggregate and dividing by the total number of transfected cells multiplied times 100. In each experiment at least 200 transfected cells were counted. Experiments were repeated at least four times. Error bars represent standard errors. *=p<0.05;**=p<0.01 (Student's t-test) […]
(§2) COS-7 cells were grown and maintained in Dulbecco's modified Eagles' medium (DMEM) supplemented with 10% fetal calf serum (FCS). […] Cells were examined 48 hours after transfection using a Zeiss fluorescence microscope equipped with YFP/CFP filter sets (Omega Optical Inc., Brattleboro, Vt.). The percentage of cells with aggregates was calculated by dividing the number of cells with aggregates by the total number of fluorescent cells, multiplied by 100. […] Cells were incubated with 5 μM ethidium homodimer for 30 minutes (37° C.) and then examined under a fluorescence microscope equipped with a rhodamine filter set. Cells with nuclear fluorescence were counted as dead. In each experiment at least 200 transfected cells were counted. […]

Q19-YFP = assay: Intracellular distribution of Q19-YFP in co-transfected COS-7 cells; format: cell-based
Experimental: as §1, with “The first methionine of YFP or CFP was changed to isoleucine by PCR site-directed mutagenesis to eliminate translation of the fluorescent protein without the polyglutamine domain. The sizes of the fluorescent fusion proteins were confirmed by western blotting.” left out
as §2, with “dead.” for “dead. In each experiment at least 200 transfected cells were counted.”

Qn-YFP = assay: Polyglutamine-YFP (Qn-YFP) aggregate formation in co-transfected COS-7 cells, all lengths; format: cell-based; conditions: co-expression, 48 hours after transfection, FIG. 4
Experimental: COS-7 cells examined 48 hours after transfection using a Zeiss fluorescence microscope with the CFP/YFP filter set from Omega Optical Inc. The percentage of cells with aggregates was calculated by counting the number of transfected cells containing aggregate and dividing by the total number of transfected cells multiplied times 100. In each experiment at least 200 transfected cells were counted. Experiments were repeated at least four times. Error bars represent standard errors. *=p<0.05;**=p<0.01 (Student's t-test)
as §1, with “The first methionine of YFP or CFP was changed to isoleucine by PCR site-directed mutagenesis to eliminate translation of the fluorescent protein without the polyglutamine domain. The sizes of the fluorescent fusion proteins were confirmed by western blotting.” left out
as §2

polyglutamine = assay: In vitro polyglutamine aggregation, polyarginine transport peptide; format: biochemical
[2] = tested on: COS 7 cells expressing Q81-YFP; assay: Peptides added to transfected COS 7 cells expressing Q81-YFP: cell death; format: cell-based; conditions: peptide added to cells
Excerpt: (§3) Several proteins can ferry peptides or proteins into cells through the plasma membrane including HIV transactivator protein (TAT) (SEQ ID NO:37), antennapedia (SEQ ID NO:38), and herpes simplex virus type 1 protein 22 (SEQ ID NO:39) (Prochiantz, Curr Opin Cell Biol. 12:400-406 (2000)). […] The arginine-rich domains of these proteins are sufficient to transport some intact proteins even when fused to non-native proteins. The ability of polyglutamine-binding peptides fused to a TAT fragment to enter transfected COS 7 cells and inhibit polyglutamine aggregation and cell death was examined.

Q81-YFP [3] = assay: Peptides added to transfected COS 7 cells expressing Q81-YFP: aggregation; format: cell-based; conditions: peptide added to cells
Excerpt: as §3

Chain of thio-Q62 (as listed by the source): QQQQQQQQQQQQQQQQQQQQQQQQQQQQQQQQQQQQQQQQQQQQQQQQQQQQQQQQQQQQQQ
Chain of Q81-YFP (as listed by the source): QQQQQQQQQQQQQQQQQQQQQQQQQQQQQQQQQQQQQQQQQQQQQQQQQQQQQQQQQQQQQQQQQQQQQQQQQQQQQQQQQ
Chain of Q45-YFP (as listed by the source): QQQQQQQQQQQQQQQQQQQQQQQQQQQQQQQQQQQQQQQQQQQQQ

WLWWPGIFD was tested, and the “Ability to Inhibit Aggregation” value (thio-Q62) was “++ (++ = 50% inhibition)”.
“WKWWFD [QBP1-M6FD, QBP1-M7FD with the proline removed]” was tested, and the “inhibition of polyglutamine-thioredoxin aggregation (FIG. 6 and 7)” value (shortened to “inhibition … (FIG. 6 and 7)”) (thio-Q62) was “significant loss of activity”.
“RAN-CFP: computer-generated random peptide fused to cyan fluorescent protein (LSLMEFGCRGA; also: fused to cyan fluorescent protein)” was tested, and the “co-localization with Q81-YFP aggregates” value (Q81-YFP [1]) was “did not co-localize”.
WKWWPFD was tested, and the “inhibition … (FIG. 6 and 7)” value (thio-Q62) was “some activity at high concentration”.
For WKWWPWKWW, the “Ability to Inhibit Aggregation” value (thio-Q62) was “+++ (+++ = 75% inhibition)”.
In the case of “QBP1-CFP: QBP1 fused to cyan fluorescent protein, expressed in COS-7 cells (SNWKWWPGIFD; also: fused to cyan fluorescent protein)”, the “reduction of Q45-YFP aggregation” value (Q45-YFP) is reported as 39%, the “effect of co-expression on Q19-YFP distribution” value (Q19-YFP) is reported as “unaffected” and the “co-localization with Q81-YFP aggregates” value (Q81-YFP [1]) is reported as “co-localization”. For the same substance, the “effect on percentage of cells with polyglutamine aggregates” value (Qn-YFP) was “reduced the percentage of cells with polyglutamine aggregates”.
In the case of “WKWWPGIFD-GGRRRRRRRR (WKWWPGIFDGGRRRRRRRR)”, the “inhibition of in vitro polyglutamine aggregation” value (polyglutamine) is reported as “inhibits”, the “effect on cell death (in words)” value [2] is reported as “inhibits” and the “effect on aggregation in cells (in words)” value (Q81-YFP [3]) is reported as “inhibits”.
In the case of WKWWVWKWW, the “Ability to Inhibit Aggregation” value (thio-Q62) is reported as “++ (++ = 50% inhibition)”.
With WWWWPGIFD the “Ability to Inhibit Aggregation” value (thio-Q62) was “++ (++ = 50% inhibition)”.
With “(QBP1)2-CFP: tandem repeat of QBP1 fused to cyan fluorescent protein (SNWKWWPGIFDSNWKWWPGIFD; also: fused to cyan fluorescent protein)” the “effect on percentage of cells with polyglutamine aggregates” value (Qn-YFP) was “more effective”.
In the case of WKWW, the “inhibition … (FIG. 6 and 7)” value (thio-Q62) is reported as “does not exhibit substantial inhibition of aggregation”.
WKWWPGIFD was tested, and the “Ability to Inhibit Aggregation” value (thio-Q62) was “++++ (++++ = full inhibition)”, the “effect on cell death (in words)” value [2] was “no effect” and the “effect on aggregation in cells (in words)” value (Q81-YFP [3]) was “no effect”.
